The record followed here is US8536187B2 (Gilead Sciences, Inc., priority 2008, dated 2013).

For series [1], the system named is HCV replicon in human hepatoma Huh-7 cell line. The series can be described thus: Anti-HCV replicon assay, EC50 (luciferase luminescence). Conditions: Hepatitis C virus, Huh-7, 72 h. It is filed as cell-based. The method in brief:
(§1)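 Huh-7 cells carrying HCV replicon (6000/well) incubated with serially diluted compound, 0.5% DMSO final, 3 days at 37° C, 5% CO2. EC50 from luciferase luminescence after 30 min lysis/substrate at room temperature; CC50 from CellTiter-Glo luminescence after 10 min at room temperature.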
(In general: A replicon is a self-replicating genome or part of one, used to study replication in cells.)

Series [2] in a line: CC50 assay (CellTiter-Glo) in Huh-7 HCV replicon cells. In kind it is cell-based. The conditions noted are these: human, Table 2, 3 days incubation. The procedure, abridged:
as §1
Background: ATP-based viability assays read luminescence as a measure of living cells.

One may read the EC50 as the concentration that produces a half-maximal response. Read a low EC50 as higher potency in that assay. A word on the CC50: it is the concentration at which the toxic effect on the cells reaches its halfway point. A low value points to greater toxicity to the cells. Consider `CC(Cn1cncn1)Nc1nc(NC2(C(F)(F)F)CC2)c2nc(-c3ccc(N)nc3)ccc2n1` (centres unmarked) [Example 31, 6-(6-amino-pyridin-3-yl)-N2-(1-methyl-2-[1,2,4]triazol-1-yl-ethyl)-N4-(1-trifluoromethyl-cyclopropyl)-pyrido[3,2-d]pyrimidine-2,4-diamine], for which the EC50 in series [1] was < 100 nM. In addition, the CC50 at 3 days in series [2] is > 10000 nM.

In turn, `CS(=O)(=O)Nc1cncc(CNc2nc(NC3(C(F)(F)F)CC3)c3nc(-c4ccc(F)cc4)ccc3n2)c1` [Example 134, N-(5-((6-(4-fluorophenyl)-4-(1-(trifluoromethyl)cyclopropyl-amino)pyrido[3,2-d]pyrimidin-2-ylamino)methyl)pyridin-3-yl)methanesulfonamide] gave a concentration for a half-maximal effect (EC50) in series [1] of 250 to 2000 nM. In addition, the half-maximal cytotoxic concentration (CC50) at 3 days in series [2] is > 10000 nM.

For the compound `C[C@@H](Nc1nc(NC2(C(F)(F)F)CC2)c2nc(-c3ccc(F)nc3)ccc2n1)c1ccc(S(N)(=O)=O)cc1` [Example 79, 4-((R)-1-(6-(6-fluoropyridin-3-yl)-4-(1-(trifluoromethyl)cyclopropylamino)pyrido[3,2-d]pyrimidin-2-ylamino)ethyl) benzenesulfonamide], the EC50 in series [1] was < 100 nM. Moreover, the half-maximal cytotoxic concentration (CC50) at 3 days in series [2] was > 10000 nM.

`NS(=O)(=O)c1ccc(CNc2nc(NC3(C(F)(F)F)CC3)c3nc(C#CC4CC4)ccc3n2)cc1` [Example 92, 4-((6-(2-cyclopropylethynyl)-4-(1-(trifluoromethyl)cyclopropyl-amino)pyrido[3,2-d]pyrimidin-2-ylamino)methyl)benzene-sulfonamide]: in series [1], the EC50 is < 100 nM. Moreover, the CC50 at 3 days in series [2] lay within 1000 to 10000 nM.
